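A five-concentration, 48-hour dose response in 96-well plates underlies each endpoint, interpolated linearly between surrounding concentrations. Abbreviation: GI50, concentration required for 50% inhibition of growth.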 The source made the active and inactive calls. Rule as the data show it: active = GI50 up to about 1.1 µM and inactive = higher.
Legend:
Test in all cases: inhibition of tumour cell growth, NCI panel, 48 h
ACHN = tested on: ACHN
CAKI-1 = tested on: CAKI-1
COLO 205 = tested on: COLO 205
DMS-114 = tested on: DMS-114
DMS-273 = tested on: DMS-273
EKVX = tested on: EKVX
HCC 2998 = tested on: HCC 2998
HCT-116 = tested on: HCT-116
HCT-15 = tested on: HCT-15
HOP-18 = tested on: HOP-18
HOP-62 = tested on: HOP-62
HT-29 = tested on: HT-29
IGROV-1 = tested on: IGROV-1
K562 = tested on: K562
KM-20L2 = tested on: KM-20L2
KM12 = tested on: KM12
LOX IMVI = tested on: LOX IMVI
LXFL 529 = tested on: LXFL 529
M14 = tested on: M14
M19-MEL = tested on: M19-MEL
MOLT-4 = tested on: MOLT-4
Malme-3M = tested on: Malme-3M
NCI-H226 = tested on: NCI-H226
NCI-H23 = tested on: NCI-H23
NCI-H460 = tested on: NCI-H460
NCI-H522 = tested on: NCI-H522
OVCAR-3 = tested on: OVCAR-3
OVCAR-4 = tested on: OVCAR-4
OVCAR-5 = tested on: OVCAR-5
OVCAR-8 = tested on: OVCAR-8
RPMI-8226 = tested on: RPMI-8226
RXF 393 = tested on: RXF 393
RXF 631 = tested on: RXF 631
SF-268 = tested on: SF-268
SF-295 = tested on: SF-295
SK-MEL-28 = tested on: SK-MEL-28
SK-MEL-2 = tested on: SK-MEL-2
SN12C = tested on: SN12C
SNB-19 = tested on: SNB-19
SNB-78 = tested on: SNB-78
SR = tested on: SR
SW-620 = tested on: SW-620
TK-10 = tested on: TK-10
U-251 = tested on: U-251
UACC-62 = tested on: UACC-62
UO-31 = tested on: UO-31
XF498 = tested on: XF498

## O=C(c1ccccc1)[C@H]1Nc2ccc(Cl)cc2[C@H]2OCCC[C@@H]12
ACHN
  GI50: 31.3 µM (inactive)
CAKI-1
  GI50: 23 µM (inactive)
COLO 205
  GI50: 21.5 µM (inactive)
DMS-114
  GI50: 14.2 µM (inactive)
DMS-273
  GI50: 19.3 µM (inactive)
EKVX
  GI50: 23.4 µM (inactive)
HCC 2998
  GI50: 22.2 µM (inactive)
HCT-116
  GI50: 16.3 µM (inactive)
HCT-15
  GI50: 23.1 µM
HOP-18
  GI50: 18.5 µM (inactive)
HOP-62
  GI50: 18 µM (inactive)
HT-29
  GI50: 18.5 µM (inactive)
IGROV-1
  GI50: 39 µM (inactive)
K562
  GI50: 22.6 µM (inactive)
KM-20L2
  GI50: 16.7 µM (inactive)
KM12
  GI50: 19 µM (inactive)
LOX IMVI
  GI50: 16.7 µM (inactive)
LXFL 529
  GI50: 12.1 µM (inactive)
M14
  GI50: 17.5 µM (inactive)
M19-MEL
  GI50: 23 µM (inactive)
MOLT-4
  GI50: 16.8 µM (inactive)
Malme-3M
  GI50: 25.6 µM (inactive)
NCI-H226
  GI50: 21.3 µM (inactive)
NCI-H23
  GI50: 24.7 µM (inactive)
NCI-H460
  GI50: 18 µM (inactive)
NCI-H522
  GI50: 14.1 µM (inactive)
OVCAR-3
  GI50: 14.9 µM (inactive)
OVCAR-4
  GI50: 20.7 µM (inactive)
OVCAR-5
  GI50: 15.9 µM (inactive)
OVCAR-8
  GI50: 20.9 µM (inactive)
RPMI-8226
  GI50: 19.3 µM (inactive)
RXF 393
  GI50: 17.3 µM (inactive)
RXF 631
  GI50: 17.9 µM (inactive)
SF-268
  GI50: 19 µM (inactive)
SF-295
  GI50: 17 µM (inactive)
SK-MEL-28
  GI50: 18.2 µM (inactive)
SK-MEL-2
  GI50: 25.4 µM (inactive)
SN12C
  GI50: 19.7 µM (inactive)
SNB-19
  GI50: 27.6 µM (inactive)
SNB-78
  GI50: 24.1 µM (inactive)
SR
  GI50: 26.1 µM (inactive)
SW-620
  GI50: 17.3 µM (inactive)
TK-10
  GI50: 28.5 µM (inactive)
U-251
  GI50: 17.3 µM (inactive)
UACC-62
  GI50: 17.8 µM (inactive)
UO-31
  GI50: 15.9 µM (inactive)
XF498
  GI50: 19.5 µM (inactive)

Source: ChEMBL document CHEMBL1201862, “PubChem BioAssay data set” (2004)
